In ChEMBL document CHEMBL3045195, “Comparison of the activity of non-steroidal ecdysone agonists between dipteran and lepidopteran insects, using cell-based EcR reporter assays” (Pest Manag Sci, 2010):
The source made the active and inactive calls. No cut-off for these calls is given here.

Columns and labels:
[1] = biological target: T1, Ecdysone receptor (Aedes aegypti, UniProt P49880+Q9GSG8); test: Agonist activity at Aedes aegypti ecdysone receptor expressed in mammalian cells by reporter gene assay; assay type: cell-based
T1 sequence (P49880 whole entry): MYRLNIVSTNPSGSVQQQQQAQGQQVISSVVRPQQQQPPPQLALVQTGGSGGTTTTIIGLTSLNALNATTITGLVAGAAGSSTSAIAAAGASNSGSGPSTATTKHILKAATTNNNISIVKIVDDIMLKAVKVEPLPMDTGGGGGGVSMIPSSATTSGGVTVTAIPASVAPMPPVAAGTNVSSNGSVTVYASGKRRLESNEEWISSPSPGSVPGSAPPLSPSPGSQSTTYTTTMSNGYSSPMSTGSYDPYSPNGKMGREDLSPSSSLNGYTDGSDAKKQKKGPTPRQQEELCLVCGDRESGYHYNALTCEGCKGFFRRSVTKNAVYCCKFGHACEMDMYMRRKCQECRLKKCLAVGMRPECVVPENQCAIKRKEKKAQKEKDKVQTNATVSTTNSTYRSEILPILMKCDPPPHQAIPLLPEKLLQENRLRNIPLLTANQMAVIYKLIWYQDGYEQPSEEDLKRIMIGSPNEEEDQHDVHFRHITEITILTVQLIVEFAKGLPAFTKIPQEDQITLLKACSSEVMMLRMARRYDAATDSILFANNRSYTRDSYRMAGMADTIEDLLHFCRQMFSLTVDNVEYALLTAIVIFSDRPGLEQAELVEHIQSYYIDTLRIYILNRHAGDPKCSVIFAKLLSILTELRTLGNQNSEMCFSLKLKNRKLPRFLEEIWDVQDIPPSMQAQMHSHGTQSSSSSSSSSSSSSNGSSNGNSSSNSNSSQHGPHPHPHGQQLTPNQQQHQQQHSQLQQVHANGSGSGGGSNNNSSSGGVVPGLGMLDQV
T1 sequence (Q9GSG8 whole entry): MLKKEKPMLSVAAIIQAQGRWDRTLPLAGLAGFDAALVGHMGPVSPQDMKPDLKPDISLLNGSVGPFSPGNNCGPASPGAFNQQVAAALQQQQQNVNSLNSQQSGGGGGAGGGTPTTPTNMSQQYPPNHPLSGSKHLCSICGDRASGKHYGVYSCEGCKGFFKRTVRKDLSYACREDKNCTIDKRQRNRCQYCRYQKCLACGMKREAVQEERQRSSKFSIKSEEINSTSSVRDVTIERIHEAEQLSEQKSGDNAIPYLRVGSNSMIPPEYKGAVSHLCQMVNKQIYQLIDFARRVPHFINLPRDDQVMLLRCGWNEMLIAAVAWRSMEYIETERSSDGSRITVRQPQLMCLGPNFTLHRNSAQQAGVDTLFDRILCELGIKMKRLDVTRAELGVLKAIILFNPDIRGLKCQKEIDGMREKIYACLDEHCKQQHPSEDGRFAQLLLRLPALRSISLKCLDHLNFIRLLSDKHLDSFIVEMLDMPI

[2] = biological target: T2, Ecdysone receptor (Bombyx mori) (UniProt P49881); test: (§1) Agonist activity at ecdysone receptor in Bombyx mori Bm5 cells after 24 hr by luciferase reporter gene assay; assay type: cell-based
T2 sequence (whole entry): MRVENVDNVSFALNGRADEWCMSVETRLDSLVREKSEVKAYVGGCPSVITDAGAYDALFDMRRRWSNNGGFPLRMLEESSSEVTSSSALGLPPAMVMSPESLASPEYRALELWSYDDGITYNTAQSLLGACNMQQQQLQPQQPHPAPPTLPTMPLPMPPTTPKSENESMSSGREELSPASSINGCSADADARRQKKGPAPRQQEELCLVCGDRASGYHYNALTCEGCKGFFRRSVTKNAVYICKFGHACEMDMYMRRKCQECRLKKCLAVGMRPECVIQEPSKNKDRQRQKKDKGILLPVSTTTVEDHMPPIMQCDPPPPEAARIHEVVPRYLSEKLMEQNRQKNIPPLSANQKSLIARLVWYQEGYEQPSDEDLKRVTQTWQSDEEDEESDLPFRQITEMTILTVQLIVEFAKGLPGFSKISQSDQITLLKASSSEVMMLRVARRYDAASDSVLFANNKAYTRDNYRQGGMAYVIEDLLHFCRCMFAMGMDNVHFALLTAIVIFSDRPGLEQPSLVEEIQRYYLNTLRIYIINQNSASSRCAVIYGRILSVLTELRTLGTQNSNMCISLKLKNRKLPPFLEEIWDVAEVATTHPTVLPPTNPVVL

[3] = biological target: T3, Ecdysone receptor (Drosophila melanogaster, UniProt P20153+P34021); test: Agonist activity at ecdysone receptor in Drosophila melanogaster S2 cells after 24 hr by luciferase reporter gene assay; assay type: cell-based
T3 sequence (P34021 whole entry): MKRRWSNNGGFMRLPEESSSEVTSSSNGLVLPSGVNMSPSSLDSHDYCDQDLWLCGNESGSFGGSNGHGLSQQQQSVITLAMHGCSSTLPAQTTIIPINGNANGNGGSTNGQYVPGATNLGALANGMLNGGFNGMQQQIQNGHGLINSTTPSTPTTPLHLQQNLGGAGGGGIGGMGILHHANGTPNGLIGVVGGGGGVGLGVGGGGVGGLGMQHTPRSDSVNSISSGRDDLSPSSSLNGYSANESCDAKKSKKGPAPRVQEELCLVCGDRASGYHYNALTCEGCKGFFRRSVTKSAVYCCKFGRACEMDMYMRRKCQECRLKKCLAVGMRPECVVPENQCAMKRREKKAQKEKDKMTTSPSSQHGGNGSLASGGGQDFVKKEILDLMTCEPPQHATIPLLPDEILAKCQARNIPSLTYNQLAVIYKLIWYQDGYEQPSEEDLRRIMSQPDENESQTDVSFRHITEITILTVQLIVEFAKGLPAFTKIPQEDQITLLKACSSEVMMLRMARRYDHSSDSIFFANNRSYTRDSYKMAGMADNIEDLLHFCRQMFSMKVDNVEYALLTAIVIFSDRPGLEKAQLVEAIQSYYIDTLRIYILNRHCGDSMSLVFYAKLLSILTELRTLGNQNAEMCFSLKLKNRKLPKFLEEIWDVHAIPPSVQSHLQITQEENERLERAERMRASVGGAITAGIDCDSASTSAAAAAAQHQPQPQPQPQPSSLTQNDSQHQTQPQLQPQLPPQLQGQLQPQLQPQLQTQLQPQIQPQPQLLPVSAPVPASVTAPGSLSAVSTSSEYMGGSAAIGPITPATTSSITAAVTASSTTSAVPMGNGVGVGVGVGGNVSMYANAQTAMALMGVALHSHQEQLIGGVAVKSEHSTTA
T3 sequence (P20153 whole entry): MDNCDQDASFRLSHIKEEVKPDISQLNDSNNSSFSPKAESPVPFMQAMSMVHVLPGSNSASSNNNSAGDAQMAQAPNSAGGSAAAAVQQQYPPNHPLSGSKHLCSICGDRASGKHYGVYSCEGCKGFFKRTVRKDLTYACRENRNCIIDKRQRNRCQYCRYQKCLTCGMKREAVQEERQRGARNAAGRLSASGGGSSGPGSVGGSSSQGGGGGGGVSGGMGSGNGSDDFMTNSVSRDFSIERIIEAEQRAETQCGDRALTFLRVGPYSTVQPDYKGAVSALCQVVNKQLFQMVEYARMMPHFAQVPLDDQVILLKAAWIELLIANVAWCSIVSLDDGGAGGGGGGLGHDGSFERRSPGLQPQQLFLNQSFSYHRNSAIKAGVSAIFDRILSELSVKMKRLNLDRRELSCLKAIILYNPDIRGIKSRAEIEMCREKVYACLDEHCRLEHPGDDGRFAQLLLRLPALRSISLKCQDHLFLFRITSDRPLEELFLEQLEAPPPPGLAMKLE

[4] = biological target: T4, Ecdysone receptor (Drosophila melanogaster) (UniProt P34021+P20153); test: Agonist activity at ecdysone receptor in Drosophila melanogaster S2 cells at 10 uM after 24 hr by luciferase reporter gene assay relative to 20-hydroxyecdysone; assay type: cell-based
[5] = biological target: Ecdysone receptor (Aedes aegypti) (UniProt P49880+Q9GSG8); test: Agonist activity at Aedes aegypti ecdysone receptor expressed in mammalian cells by reporter gene assay relative to control; assay type: cell-based
[6] = biological target: T3, Ecdysone receptor; test: (§2) Agonist activity at ecdysone receptor in Drosophila melanogaster Kc cells after 24 hr by luciferase reporter gene assay
[7] = biological target: T4, Ecdysone receptor (Drosophila melanogaster); test: Agonist activity at ecdysone receptor in Drosophila melanogaster Kc cells at 10 uM after 24 hr by luciferase reporter gene assay relative to 20-hydroxyecdysone
[8] = biological target: T5, Ecdysone receptor (Bombyx mori, UniProt P49881); test: as §1; assay type: cell-based
T5 sequence (P49881 whole entry): T2 sequence (whole entry)

[9] = biological target: T4, Ecdysone receptor (Drosophila melanogaster); test: Agonist activity at ecdysone receptor in Drosophila melanogaster S2 cells at 5 uM after 24 hr by luciferase reporter gene assay relative to 20-hydroxyecdysone; assay type: cell-based
[10] = biological target: T4, Ecdysone receptor (Drosophila melanogaster); test: Agonist activity at ecdysone receptor in Drosophila melanogaster S2 cells at 50 uM after 24 hr by luciferase reporter gene assay relative to 20-hydroxyecdysone; assay type: cell-based
[11] = biological target: T4, Ecdysone receptor (Drosophila melanogaster); test: Agonist activity at ecdysone receptor in Drosophila melanogaster S2 cells at 100 uM after 24 hr by luciferase reporter gene assay relative to 20-hydroxyecdysone; assay type: cell-based
[12] = biological target: T4, Ecdysone receptor (Drosophila melanogaster); test: Agonist activity at ecdysone receptor in Drosophila melanogaster Kc cells at 100 uM after 24 hr by luciferase reporter gene assay relative to 20-hydroxyecdysone
[13] = biological target: T4, Ecdysone receptor (Drosophila melanogaster); test: as §2
[14] = biological target: T4, Ecdysone receptor (Drosophila melanogaster); test: Agonist activity at ecdysone receptor in Drosophila melanogaster S2 cells at 1.33 uM after 24 hr by luciferase reporter gene assay relative to 20-hydroxyecdysone; assay type: cell-based
[15] = Cytotoxicity against Drosophila melanogaster S2 cells at 10 to 100 uM after 24 hr by CellTiter assay; assay type: cell-based; details: s2, 24 h
[16] = biological target: T4, Ecdysone receptor (Drosophila melanogaster); test: Agonist activity at ecdysone receptor in Drosophila melanogaster S2 cells after 24 hr by luciferase reporter gene assay in presence of ouabain; assay type: cell-based
[17] = biological target: T4, Ecdysone receptor (Drosophila melanogaster); test: Agonist activity at ecdysone receptor in Drosophila melanogaster S2 cells treated with ouabain for 24 hr prior to compound addition measured after 24 hr by luciferase reporter gene assay; assay type: cell-based

Question: Which EC50 [1] does the source give for Cc1ccc(NC2CC(C)N(C(=O)c3ccc(C)cc3)c3ccc(C)cc32)cc1 (centres undefined) here?
Answer: 5.01 µM

Question: And the pEC50 [2]?
Answer: inactive

Question: And the EC50 [3]?
Answer: > 10 µM

Question: And the Efficacy [4]?
Answer: 11%

Question: And the Efficacy [5]?
Answer: 26%

Question: Which EC50 [6] does the source give for CC(C)(C)N(NC(=O)c1ccc(Br)cc1)C(=O)c1ccccc1Cl here?
Answer: 6.92 µM

Question: What about the Efficacy [7] of the same compound?
Answer: 56%

Question: What about the EC50 [8] of the same compound?
Answer: 0.0339 µM

Question: What about the EC50 [3] of the same compound?
Answer: 2.82 µM

Question: And the Efficacy [9]?
Answer: 68%

Question: With CCOc1ccccc1C(=O)N(NC(=O)c1ccc(CC)cc1)C(C)(C)C as the compound, how does the Efficacy [10] read?
Answer: 2%

Question: What about the EC50 [3] of the same compound?
Answer: > 50.1 µM

Question: With CC(=O)c1ccc(C(=O)NN(C(=O)c2ccccc2Cl)C(C)(C)C)cc1 as the compound, how does the EC50 [6] read?
Answer: > 100 µM

Question: What about the Efficacy [7] of the same compound?
Answer: 3%

Question: What about the Efficacy [11] of the same compound?
Answer: 7%

Question: For CC(C)(C)N(NC(=O)c1c(F)cccc1F)C(=O)c1ccccc1Cl, which EC50 [6] is on record?
Answer: > 100 µM

Question: What about the Efficacy [11] of the same compound?
Answer: 23%

Question: And the Efficacy [12]?
Answer: 35%

Question: For Cc1ccc(NC2CC(C)N(C(=O)c3ccc(Cl)cc3)c3ccc(C)cc32)cc1 (centres undefined), which EC50 [1] is on record?
Answer: 2.14 µM

Question: What about the pEC50 [2] of the same compound?
Answer: inactive

Question: What about the EC50 [3] of the same compound?
Answer: > 10 µM

Question: And the Efficacy [4]?
Answer: 9%

Question: What about the Efficacy [5] of the same compound?
Answer: 39%

Question: For Cc1ccc(C(=O)NN(C(=O)c2ccccc2Cl)C(C)(C)C)c(C)c1, which pEC50 [13] is on record?
Answer: inactive

Question: What about the EC50 [8] of the same compound?
Answer: 0.162 µM

Question: What about the Efficacy [11] of the same compound?
Answer: 43%

Question: And the Efficacy [12]?
Answer: 29%

Question: And the EC50 [3]?
Answer: 129 µM

Question: With CC(C)(C)N(NC(=O)c1ccc(I)cc1)C(=O)c1ccccc1Cl as the compound, how does the EC50 [8] read?
Answer: 0.00759 µM

Question: And the EC50 [3]?
Answer: 7.08 µM

Question: And the Efficacy [9]?
Answer: 53%

Question: For Cc1cc(C)cc(C(=O)C2(NC(=O)c3ccc4c(c3C)CCCO4)CCCCC2)c1, which Efficacy [14] is on record?
Answer: 37%

Question: And the EC50 [3]?
Answer: > 1.32 µM

Question: What does the source list for COc1cccc(C(=O)NN(C(=O)c2cc(C)cc(C)c2)C(C)(C)C)c1C [METHOXYFENOZIDE]?
Answer: Activity [15]: Non-toxic; Activity [16]: Active; Activity [17]: Active; EC50 [8]: 0.00603 µM; Efficacy [11]: 66%; EC50 [3]: 16.6 µM
